ChEMBL document CHEMBL5236580, “Blocking Non-enzymatic Functions by PROTAC-Mediated Targeted Protein Degradation” (J Med Chem, 2022)

Columns and labels:
[1] = target: Protein cereblon/Protein deacetylase HDAC6 (Homo sapiens, UniProt Q96SW2+Q9UBN7); experiment: PROTAC activity at CRBN/HDAC6 in human K562 cells assessed as degradation of HDAC6; type: cell-based
[2] = target: Protein cereblon/Protein deacetylase HDAC6 (Homo sapiens) (UniProt Q9UBN7+Q96SW2); experiment: PROTAC activity at CRBN/HDAC6 in human K562 cells assessed as degradation of HDAC6 relative to control; type: cell-based
[3] = target: T1, Histone-lysine N-methyltransferase EZH2 (Homo sapiens, UniProt Q15910); experiment: Inhibition of EZH2 (unknown origin)
Target sequence in this assay (Q15910 whole entry): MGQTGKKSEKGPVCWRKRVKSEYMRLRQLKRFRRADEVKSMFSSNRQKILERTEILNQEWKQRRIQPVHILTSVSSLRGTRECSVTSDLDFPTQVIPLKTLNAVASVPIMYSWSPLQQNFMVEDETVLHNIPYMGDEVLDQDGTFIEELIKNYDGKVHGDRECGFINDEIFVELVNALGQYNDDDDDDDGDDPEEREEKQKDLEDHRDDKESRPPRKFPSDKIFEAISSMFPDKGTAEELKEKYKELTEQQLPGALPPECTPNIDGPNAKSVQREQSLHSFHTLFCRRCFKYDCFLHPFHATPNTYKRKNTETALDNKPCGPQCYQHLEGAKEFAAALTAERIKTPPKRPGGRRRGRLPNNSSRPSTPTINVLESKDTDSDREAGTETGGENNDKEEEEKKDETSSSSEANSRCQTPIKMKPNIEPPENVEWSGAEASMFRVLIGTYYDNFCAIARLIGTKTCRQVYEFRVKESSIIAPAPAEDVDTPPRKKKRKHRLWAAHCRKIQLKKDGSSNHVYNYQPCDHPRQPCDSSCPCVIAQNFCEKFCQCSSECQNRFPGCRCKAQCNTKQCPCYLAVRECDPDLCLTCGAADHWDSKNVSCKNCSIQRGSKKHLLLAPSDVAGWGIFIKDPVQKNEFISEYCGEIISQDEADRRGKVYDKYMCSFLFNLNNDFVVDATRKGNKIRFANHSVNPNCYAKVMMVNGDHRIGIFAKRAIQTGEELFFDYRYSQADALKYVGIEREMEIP

[4] = Growth inhibition of human Triple-negative breast cancer cells; type: functional; conditions: Triple-negative breast cancer cell
[5] = target: T2, Focal adhesion kinase 1 (Homo sapiens, UniProt Q05397); experiment: Induction of degradation of Fak in human PC-3 cells; type: cell-based
[6] = target: T2, Focal adhesion kinase 1; experiment: Induction of degradation of Fak in human PC-3 cells assessed as maximum degradation relative to control; type: cell-based
Target sequence in this assay (Q05397 2-1052 limits assumed): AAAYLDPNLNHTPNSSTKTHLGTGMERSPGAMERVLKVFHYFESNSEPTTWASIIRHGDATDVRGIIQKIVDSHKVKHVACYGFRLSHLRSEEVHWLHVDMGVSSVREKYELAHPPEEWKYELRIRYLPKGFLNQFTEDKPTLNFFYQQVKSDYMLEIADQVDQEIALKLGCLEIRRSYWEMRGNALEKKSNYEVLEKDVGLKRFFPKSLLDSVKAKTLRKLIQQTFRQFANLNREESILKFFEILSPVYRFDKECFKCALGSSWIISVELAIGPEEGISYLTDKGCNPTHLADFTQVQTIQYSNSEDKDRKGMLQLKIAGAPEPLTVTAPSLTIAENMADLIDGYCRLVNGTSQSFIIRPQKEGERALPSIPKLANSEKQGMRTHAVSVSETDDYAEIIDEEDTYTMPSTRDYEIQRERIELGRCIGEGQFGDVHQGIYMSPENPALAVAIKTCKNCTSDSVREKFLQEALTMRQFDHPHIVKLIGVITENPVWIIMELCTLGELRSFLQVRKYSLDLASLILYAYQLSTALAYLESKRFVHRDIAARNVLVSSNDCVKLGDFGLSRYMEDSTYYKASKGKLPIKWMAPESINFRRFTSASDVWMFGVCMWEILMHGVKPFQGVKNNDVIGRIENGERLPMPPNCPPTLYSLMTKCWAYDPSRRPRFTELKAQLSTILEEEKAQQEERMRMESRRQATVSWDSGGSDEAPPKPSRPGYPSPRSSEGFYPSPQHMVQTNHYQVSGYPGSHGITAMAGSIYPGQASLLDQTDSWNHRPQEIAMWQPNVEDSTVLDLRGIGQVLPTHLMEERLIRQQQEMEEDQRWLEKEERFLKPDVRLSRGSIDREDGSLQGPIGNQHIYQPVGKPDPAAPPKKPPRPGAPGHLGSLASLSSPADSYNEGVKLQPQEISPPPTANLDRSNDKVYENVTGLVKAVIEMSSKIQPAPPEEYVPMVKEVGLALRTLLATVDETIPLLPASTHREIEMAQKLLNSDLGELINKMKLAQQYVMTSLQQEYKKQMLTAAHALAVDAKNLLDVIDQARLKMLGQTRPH

[7] = system: MV4-11; experiment: Induction of cell cycle arrest in human MV4-11 cells assessed as accumulation of cells at G2/M phase measured after 12 hrs; type: functional, cell-based; conditions: MV4-11, 12 h
[8] = target: T1, Histone-lysine N-methyltransferase EZH2; experiment: Induction of degradation of EZH2 in human EOL1 cells; type: cell-based
Target sequence in this assay (Q15910 whole entry): as the sequence (Q15910 whole entry) above

[9] = target: T1, Histone-lysine N-methyltransferase EZH2; experiment: Induction of degradation of EZH2 in human EOL1 cells assessed as maximum degradation relative to control; type: cell-based
Target sequence in this assay (Q15910 whole entry, looked up): as the sequence (Q15910 whole entry) above

[10] = target: T1, Histone-lysine N-methyltransferase EZH2; experiment: Induction of degradation of EZH2 in human MV4-11 cells; type: cell-based
Target sequence in this assay (Q15910 whole entry): as above

[11] = target: T1, Histone-lysine N-methyltransferase EZH2; experiment: Induction of degradation of EZH2 in human MV4-11 cells assessed as maximum degradation relative to control; type: cell-based
Target sequence in this assay (Q15910 whole entry, looked up): as the sequence (Q15910 whole entry) above

[12] = system: JeKo-1; experiment: Antiproliferative activity against human JeKo-1 cells harbouring p53 mutant; type: functional, cell-based
[13] = Antiproliferative activity against human MINO cells harbouring p53 mutant; type: functional, cell-based
[14] = target: Ubiquitin carboxyl-terminal hydrolase 7 (Homo sapiens, UniProt Q93009); experiment: Induction of degradation of USP7 (unknown origin)
Chain of Ubiquitin carboxyl-terminal hydrolase 7 (Q93009 whole entry): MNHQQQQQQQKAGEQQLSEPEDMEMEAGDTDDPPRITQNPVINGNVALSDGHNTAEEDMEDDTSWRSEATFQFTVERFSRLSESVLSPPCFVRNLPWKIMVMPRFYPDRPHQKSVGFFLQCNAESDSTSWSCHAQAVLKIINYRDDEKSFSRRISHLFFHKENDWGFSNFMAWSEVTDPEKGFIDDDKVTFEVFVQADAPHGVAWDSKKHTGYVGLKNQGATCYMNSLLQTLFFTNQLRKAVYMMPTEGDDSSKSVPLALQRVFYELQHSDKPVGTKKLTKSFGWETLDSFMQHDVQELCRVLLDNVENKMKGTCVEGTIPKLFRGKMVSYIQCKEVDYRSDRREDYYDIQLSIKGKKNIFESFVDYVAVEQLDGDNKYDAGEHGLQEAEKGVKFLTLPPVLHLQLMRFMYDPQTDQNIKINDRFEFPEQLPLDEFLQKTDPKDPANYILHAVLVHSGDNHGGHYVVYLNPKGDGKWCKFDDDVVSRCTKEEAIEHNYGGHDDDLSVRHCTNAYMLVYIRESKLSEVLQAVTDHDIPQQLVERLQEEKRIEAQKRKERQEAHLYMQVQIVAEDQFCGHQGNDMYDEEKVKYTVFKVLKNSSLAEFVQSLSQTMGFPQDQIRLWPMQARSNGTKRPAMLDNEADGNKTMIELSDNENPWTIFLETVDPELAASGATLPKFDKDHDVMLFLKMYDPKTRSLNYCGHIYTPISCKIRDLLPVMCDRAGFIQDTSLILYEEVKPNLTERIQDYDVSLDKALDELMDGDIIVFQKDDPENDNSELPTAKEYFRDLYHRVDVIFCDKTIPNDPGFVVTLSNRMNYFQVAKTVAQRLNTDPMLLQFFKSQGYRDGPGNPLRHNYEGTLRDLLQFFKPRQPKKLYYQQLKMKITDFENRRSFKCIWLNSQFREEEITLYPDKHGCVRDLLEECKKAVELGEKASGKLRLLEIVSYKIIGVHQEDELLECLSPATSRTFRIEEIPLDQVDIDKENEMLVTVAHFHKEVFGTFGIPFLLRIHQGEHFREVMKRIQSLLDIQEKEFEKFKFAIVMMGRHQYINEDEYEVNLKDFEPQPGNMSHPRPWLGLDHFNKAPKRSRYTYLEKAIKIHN

[15] = target: T1, Histone-lysine N-methyltransferase EZH2; experiment: Induction of degradation of EZH2 degradation in human MDA-MB-453 cells; type: cell-based
Target sequence in this assay (Q15910 whole entry): as the sequence (Q15910 whole entry) above

[16] = Antiproliferative activity against human Triple-negative breast cancer cells assessed as cell growth inhibition; type: functional
[17] = Antiproliferative activity against human TNBC ductal adenocarcinoma cells assessed as cell growth inhibition; type: functional; conditions: Triple-negative breast cancer cell
[18] = target: T3, Aurora kinase A (Homo sapiens, UniProt O14965); experiment: Induction of degradation of AURORA-A in human MV4-11 cells; type: cell-based
T3 sequence (O14965 whole entry): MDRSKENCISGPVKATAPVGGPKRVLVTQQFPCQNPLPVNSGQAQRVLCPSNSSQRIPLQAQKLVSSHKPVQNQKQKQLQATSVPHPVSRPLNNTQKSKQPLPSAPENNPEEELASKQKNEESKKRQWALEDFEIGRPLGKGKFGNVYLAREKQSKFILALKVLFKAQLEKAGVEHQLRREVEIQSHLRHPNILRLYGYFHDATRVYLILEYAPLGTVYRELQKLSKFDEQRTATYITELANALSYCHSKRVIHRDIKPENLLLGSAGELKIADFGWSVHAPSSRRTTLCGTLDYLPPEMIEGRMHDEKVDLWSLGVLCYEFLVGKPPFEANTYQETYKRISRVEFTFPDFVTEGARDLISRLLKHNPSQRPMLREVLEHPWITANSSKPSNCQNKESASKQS

[19] = target: T4, Nicotinamide phosphoribosyltransferase (Homo sapiens, UniProt P43490); experiment: Inhibition of NAMPT (unknown origin)
Target sequence in this assay (P43490 whole entry): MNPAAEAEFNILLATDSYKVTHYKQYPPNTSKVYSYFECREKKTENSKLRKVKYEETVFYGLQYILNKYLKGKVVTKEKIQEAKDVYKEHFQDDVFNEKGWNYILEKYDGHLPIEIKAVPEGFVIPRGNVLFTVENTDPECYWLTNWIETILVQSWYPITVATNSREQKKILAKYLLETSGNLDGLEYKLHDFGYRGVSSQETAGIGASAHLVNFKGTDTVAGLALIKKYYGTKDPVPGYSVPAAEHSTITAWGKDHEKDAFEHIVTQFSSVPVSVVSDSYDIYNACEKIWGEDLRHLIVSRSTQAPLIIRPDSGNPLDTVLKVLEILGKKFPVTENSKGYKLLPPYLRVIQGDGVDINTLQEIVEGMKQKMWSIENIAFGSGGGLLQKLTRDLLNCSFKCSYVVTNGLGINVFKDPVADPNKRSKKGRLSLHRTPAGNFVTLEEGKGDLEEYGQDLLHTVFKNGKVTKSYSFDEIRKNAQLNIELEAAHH

[20] = Antitumor activity against human MDSC cells xenografted in BALB/c mouse assessed as tumor growth inhibition relative to control; type: functional, Myeloid-derived suppressor cell
[21] = target: T4, Nicotinamide phosphoribosyltransferase; experiment: Induction of degradation NAMPT (unknown origin)
Target sequence in this assay (P43490 whole entry): as above

[22] = target: T4, Nicotinamide phosphoribosyltransferase; experiment: Induction of degradation NAMPT (unknown origin) assessed as maximum degradation relative to control
Target sequence in this assay (P43490 whole entry, looked up): as the sequence (P43490 whole entry) above

[23] = target: T5, von Hippel-Lindau disease tumor suppressor/Focal adhesion kinase 1 (Mus musculus) (UniProt P34152+P40338); experiment: In vivo protac activity at VHL/FAK xenografted in CD-1 mouse liver assessed as increased in FAK degradation at 80 mg/kg, sc incubated for 18 hrs relative to control; type: functional, organism-based
T5 sequence (P34152 whole entry, looked up): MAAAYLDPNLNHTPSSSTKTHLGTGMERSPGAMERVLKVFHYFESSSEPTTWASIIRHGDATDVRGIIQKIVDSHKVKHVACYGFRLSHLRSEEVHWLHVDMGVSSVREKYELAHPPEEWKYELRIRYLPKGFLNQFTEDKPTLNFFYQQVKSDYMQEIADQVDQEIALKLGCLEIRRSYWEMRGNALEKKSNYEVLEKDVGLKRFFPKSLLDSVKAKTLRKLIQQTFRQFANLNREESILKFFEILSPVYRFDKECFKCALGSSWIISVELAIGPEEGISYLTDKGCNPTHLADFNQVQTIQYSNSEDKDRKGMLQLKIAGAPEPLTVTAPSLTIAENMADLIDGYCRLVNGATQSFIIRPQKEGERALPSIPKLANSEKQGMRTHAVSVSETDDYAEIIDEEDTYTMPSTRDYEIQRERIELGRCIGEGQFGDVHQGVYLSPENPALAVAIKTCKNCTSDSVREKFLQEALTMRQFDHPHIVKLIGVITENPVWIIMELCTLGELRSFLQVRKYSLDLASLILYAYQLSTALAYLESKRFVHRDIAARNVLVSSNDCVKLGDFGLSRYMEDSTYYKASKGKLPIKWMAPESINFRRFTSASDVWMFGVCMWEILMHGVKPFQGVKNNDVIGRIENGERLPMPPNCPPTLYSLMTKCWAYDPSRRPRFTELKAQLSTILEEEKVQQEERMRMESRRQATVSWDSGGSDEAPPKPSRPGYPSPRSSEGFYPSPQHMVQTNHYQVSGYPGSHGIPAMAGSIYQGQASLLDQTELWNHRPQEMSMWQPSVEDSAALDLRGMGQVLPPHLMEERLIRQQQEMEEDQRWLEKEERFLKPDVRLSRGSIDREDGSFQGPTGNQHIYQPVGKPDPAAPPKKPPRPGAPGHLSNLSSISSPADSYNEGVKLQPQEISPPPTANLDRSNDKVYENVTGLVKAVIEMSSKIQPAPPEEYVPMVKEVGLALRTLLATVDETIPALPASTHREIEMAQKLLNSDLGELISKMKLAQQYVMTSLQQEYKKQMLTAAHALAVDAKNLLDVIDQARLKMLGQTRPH
T5 sequence (P40338 whole entry, looked up): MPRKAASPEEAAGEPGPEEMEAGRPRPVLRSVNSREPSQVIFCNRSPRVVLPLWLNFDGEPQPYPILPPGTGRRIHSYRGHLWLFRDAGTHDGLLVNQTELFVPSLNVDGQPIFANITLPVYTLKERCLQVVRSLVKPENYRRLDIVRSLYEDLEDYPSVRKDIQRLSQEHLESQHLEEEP

[24] = target: T5, von Hippel-Lindau disease tumor suppressor/Focal adhesion kinase 1 (Mus musculus); experiment: In vivo protac activity at VHL/FAK xenografted in CD-1 mouse liver assessed as reduct ion in FAK level at 80 mg/kg, sc measured after 96 hrs relative to control; type: functional, organism-based
[25] = target: Peptidyl-prolyl cis-trans isomerase FKBP1A (Homo sapiens, UniProt P62942); experiment: Induction of degradation of FKBP12 (unknown origin)
Chain of Peptidyl-prolyl cis-trans isomerase FKBP1A (P62942 whole entry): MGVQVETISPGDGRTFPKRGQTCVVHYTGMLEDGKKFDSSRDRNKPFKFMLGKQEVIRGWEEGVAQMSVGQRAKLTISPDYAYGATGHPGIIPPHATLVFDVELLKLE

## O=C(CCCO/N=C1/C(=C2/C(=O)N(Cc3cn(CCOCCNc4cccc5c4C(=O)C(N4CCC(=O)NC4=O)C5=O)nn3)c3ccccc32)Nc2ccccc21)NO (centres undefined)
[1]
  EC50: 109 nM
[2]
  Emax: 88%

## CCN(c1cc(-c2ccc(CN3CCN(C(=O)CCCCCCCC(=O)N[C@H](C(=O)N4C[C@H](OCc5ccccc5)C[C@H]4C(=O)NCc4ccc(-c5scnc5C)cc4)C(C)(C)C)CC3)cc2)cc(C(=O)NCc2c(C)cc(C)[nH]c2=O)c1C)C1CCOCC1
[3]
  IC50: 13 nM
[4]
  GI50: > 10 µM

## Cc1ncsc1-c1ccc(CNC(=O)[C@@H]2C[C@@H](O)CN2C(=O)[C@@H](NC(=O)CCOCCOc2ccc(Nc3ncc(C(F)(F)F)c(NCc4cccc(N(C)S(C)(=O)=O)c4)n3)cc2)C(C)(C)C)cc1
[5]
  EC50: 3 nM
[6]
  Emax: 99%

## COc1cc(Nc2ncc3c(n2)-c2ccc(Cl)cc2C(c2c(F)cccc2OC)=NC3)ccc1C(=O)O [ALISERTIB]
[7]
  IC50: 1.2 nM

## Cc1cc(C)c(CNC(=O)c2cc(-c3ccc(N4CCN(CCNC(=O)CCOCCNc5cccc6c5C(=O)N(C5CCC(=O)NC5=O)C6=O)CC4)nc3)cc3c2cnn3C(C)C)c(=O)[nH]1 (centres undefined)
[8]
  EC50: 200 nM
[9]
  Emax: 82%
[10]
  EC50: 1500 nM
[11]
  Emax: 68%
[3]
  IC50: 7 nM

## C[C@H](CC(=O)N1CCC(O)(Cn2cnc3c(-c4ccc(CN)cc4)n(C)nc3c2=O)CC1)c1ccccc1
[12]
  IC50: > 20000 nM
[13]
  IC50: > 20000 nM

## C[C@H](CC(=O)N1CCC(O)(Cn2cnc3c(-c4ccc(CNCCCCCCCCCCCNc5cccc6c5C(=O)N(C5CCC(=O)NC5=O)C6=O)cc4)n(C)nc3c2=O)CC1)c1ccccc1 (some centres undefined)
[14]
  EC50: 33 nM
[12]
  IC50: 1030 nM
[13]
  IC50: 1180 nM

## CCN(c1cc(-c2ccc(CN3CCN(C(=O)CCCCCCCC(=O)N[C@H](C(=O)N4C[C@H](O)C[C@H]4C(=O)NCc4ccc(-c5scnc5C)cc4)C(C)(C)C)CC3)cc2)cc(C(=O)NCc2c(C)cc(C)[nH]c2=O)c1C)C1CCOCC1
[15]
  EC50: 140 nM
[16]
  GI50: 1700 nM
[17]
  GI50: 1400 nM

## COc1cc(Nc2ncc3c(n2)-c2ccc(Cl)cc2C(c2c(F)cccc2OC)=NC3)ccc1C(=O)NCCOCCOCCNC(=O)COc1cccc2c1C(=O)N(C1CCC(=O)NC1=O)C2=O (centres undefined)
[18]
  EC50: 28 nM

## Cc1ncsc1-c1ccc(C(C)NC(=O)C2CC(O)CN2C(=O)C(NC(=O)COCCOCCOCCOCCNC(=O)c2ccc(CN3CCN(S(=O)(=O)c4ccc(NC(=S)NCc5ccccc5)cc4)CC3)cc2)C(C)(C)C)cc1 (centres undefined)
[19]
  IC50: 9.5 nM
[20]
  TGI: 80%
[21]
  EC50: 7.1 nM
[22]
  Emax: 90%

## CNC(=O)c1ccccc1Nc1cc(Nc2ccc(N3CCN(CC(=O)N[C@H](C(=O)N4C[C@H](O)C[C@H]4C(=O)N[C@@H](C)c4ccc(-c5scnc5C)cc4)C(C)(C)C)CC3)cc2OC)ncc1C(F)(F)F
[23]
  Emax: 85%
[24]
  Emax: 60%

## COC1C[C@H](C[C@@H](C)[C@@H]2CC(=O)C(C)/C=C(\C)[C@@H](O)[C@@H](OC)C(=O)[C@H](C)C[C@H](C)/C=C/C=C/C=C(\C)[C@@H](OC)C[C@@H]3CC[C@@H](C)[C@](O)(O3)C(=O)C(=O)N3CCCC[C@H]3C(=O)O2)CCC1OCCOCc1cn(CCOCCOCCNc2cccc3c2C(=O)N(C2CCC(=O)NC2=O)C3=O)nn1 (some centres undefined)
[25]
  EC50: 0.27 nM

## O=S(=O)(c1ccc(NC(=S)NCc2cccnc2)cc1)N1CCN(Cc2ccccc2)CC1
[20]
  TGI: 40%
